# Where two headings read alike, the source gives them in different places.
# Columns and labels:
# rat CB2 receptor (rCB2) = target: T1, rat CB2 receptor (rCB2) (Rattus norvegicus, UniProt Q9QZN9); test: cell-based; type: cell-based; conditions: for +/− RCB2: agonist or inverse agonist at rCB2
# T1 sequence (Q9QZN9 1-360): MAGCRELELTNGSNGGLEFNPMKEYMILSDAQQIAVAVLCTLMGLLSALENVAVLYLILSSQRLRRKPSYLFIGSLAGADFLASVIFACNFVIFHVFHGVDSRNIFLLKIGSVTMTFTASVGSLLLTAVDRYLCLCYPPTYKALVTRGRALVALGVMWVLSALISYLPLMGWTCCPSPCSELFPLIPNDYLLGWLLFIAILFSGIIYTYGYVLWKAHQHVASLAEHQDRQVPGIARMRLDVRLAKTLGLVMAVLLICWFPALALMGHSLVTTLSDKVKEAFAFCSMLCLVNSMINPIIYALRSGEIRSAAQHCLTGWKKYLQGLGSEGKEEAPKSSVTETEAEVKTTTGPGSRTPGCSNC
# Summary of the method: (§1)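 Agonism or inverse agonism was assessed as change in intracellular cAMP in CHO-K1 cells expressing human CB1 or rat CB2 (genomic DNA, pcDNA3.1).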
# [1] = target: human CB1 receptor (hCB1) (Homo sapiens, UniProt P21554); test: cell-based; type: cell-based
# Summary of the method: as §1
# Chain of human CB1 receptor (hCB1) (P21554 whole entry): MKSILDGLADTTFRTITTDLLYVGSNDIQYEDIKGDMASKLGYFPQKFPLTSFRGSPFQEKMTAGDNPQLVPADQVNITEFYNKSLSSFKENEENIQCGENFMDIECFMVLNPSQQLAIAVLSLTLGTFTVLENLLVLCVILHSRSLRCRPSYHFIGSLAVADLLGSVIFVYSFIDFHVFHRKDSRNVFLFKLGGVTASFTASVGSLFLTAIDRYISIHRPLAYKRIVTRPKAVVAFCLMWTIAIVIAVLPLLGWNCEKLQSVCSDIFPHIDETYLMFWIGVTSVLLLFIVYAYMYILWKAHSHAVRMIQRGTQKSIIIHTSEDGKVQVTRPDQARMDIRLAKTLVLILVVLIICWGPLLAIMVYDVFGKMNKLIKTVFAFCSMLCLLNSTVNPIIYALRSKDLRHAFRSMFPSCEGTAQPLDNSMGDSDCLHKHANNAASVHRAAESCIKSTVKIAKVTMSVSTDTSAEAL
SMILES,EC50 (rat CB2 receptor (rCB2)),EC50 [1],+/− RCB2 (rat CB2 receptor (rCB2)),"EC50 ([1]; groups >100 nM-10 μM and >10 μM, cAMP, CHO-K1 hCB1, read-out: EC50 HCB1)",+/− HCB1 ([1]; agonist or inverse agonist at hCB1)
"CNC(=O)[C@@H](NC(=O)c1nc(-c2ccc(S(C)(=O)=O)cc2)n2c1CN(C)CCC2)C(C)(C)C [Compound 379, (S)-N-(3,3-dimethyl-1-(methylamino)-1-oxobutan-2-yl)-8-methyl-3-(4-(methylsulfonyl)phenyl)-6,7,8,9-tetrahydro-5H-imidazo[1,5-a][1,4]diazepine-1-carboxamide]",> 10 µM,> 10000 nM,,,
"CNC(=O)[C@@H](NC(=O)c1nc(-c2ccccc2)n2c1CN(CC(C)C)CCC2)C(C)(C)C [Compound 320, (S)-N-(3,3-dimethyl-1-(methylamino)-1-oxobutan-2-yl)-8-isobutyl-3-phenyl-6,7,8,9-tetrahydro-5H-imidazo[1,5-a][1,4]diazepine-1-carboxamide]",,> 10000 nM,−,,
"CNC(=O)[C@@H](NC(=O)c1nc(CCCN2CCCCC2)n2c1CN(C)CCC2)C(C)(C)C [Compound 501, (S)-N-(3,3-dimethyl-1-(methylamino)-1-oxobutan-2-yl)-8-methyl-3-(3-(piperidin-1-yl)propyl)-6,7,8,9-tetrahydro-5H-imidazo[1,5-a][1,4]diazepine-1-carboxamide]",,> 10000 nM,+,,
"CCCc1nc(C(=O)N[C@H](C(=O)NC)C(C)(C)C)c2n1CCCN(C)C2 [Compound 485, (S)-N-(3,3-dimethyl-1-(methylamino)-1-oxobutan-2-yl)-8-methyl-3-propyl-6,7,8,9-tetrahydro-5H-imidazo[1,5-a][1,4]diazepine-1-carboxamide]",,> 10000 nM,+,,
"CNC(=O)[C@@H](NC(=O)c1nc(-c2ccccc2)n2c1CN(C1CC1)CC2)C(C)(C)C [Compound 197, (S)-7-cyclopropyl-N-(3,3-dimethyl-1-(methylamino)-1-oxobutan-2-yl)-3-phenyl-5,6,7,8-tetrahydroimidazo[1,5-a]pyrazine-1-carboxamide]",,> 10000 nM,−,,
"CNC(=O)C(NC(=O)c1nc(-c2ccccc2)n2c1CNCCC2)C(C)(C)F (stereo not shown) [Compound 604, N-(3-fluoro-3-methyl-1-(methylamino)-1-oxobutan-2-yl)-3-phenyl-6,7,8,9-tetrahydro-5H-imidazo[1,5-a][1,4]diazepine-1-carboxamide]",,> 10000 nM,+,,
"CN1CCCn2c(-c3cc(F)ccc3F)nc(C(=O)N[C@H](C(=O)N(C)C)C(C)(C)C)c2C1 [Compound 562, (S)-3-(2,5-difluorophenyl)-N-(1-(dimethylamino)-3,3-dimethyl-1-oxobutan-2-yl)-8-methyl-6,7,8,9-tetrahydro-5H-imidazo[1,5-a][1,4]diazepine-1-carboxamide]",,> 10000 nM,−,,
"CNC(=O)[C@@H](NC(=O)c1nc(/C=C/CN2CCCC2)n2c1CN(C)CCC2)C(C)(C)C [Compound 511, (S,E)-N-(3,3-dimethyl-1-(methylamino)-1-oxobutan-2-yl)-8-methyl-3-(3-(pyrrolidin-1-yl)prop-1-enyl)-6,7,8,9-tetrahydro-5H-imidazo[1,5-a][1,4]diazepine-1-carboxamide]",,> 10000 nM,+,,
"CC(C)(C)CC(=O)c1nc(-c2ccccc2)n2c1CNCC2 [Compound 291, 3,3-dimethyl-1-(3-phenyl-5,6,7,8-tetrahydroimidazo[1,5-a]pyrazin-1-yl)butan-1-one 2,2,2-trifluoroacetate]",,> 10000 nM,−,,
"CNC(=O)[C@@H](NC(=O)c1nc(-c2cc3ccccc3o2)n2c1CN(C)CCC2)C(C)(C)C [Compound 351, (S)-3-(benzofuran-2-yl)-N-(3,3-dimethyl-1-(methylamino)-1-oxobutan-2-yl)-8-methyl-6,7,8,9-tetrahydro-5H-imidazo[1,5-a][1,4]diazepine-1-carboxamide]",,> 10000 nM,+,,
"CC12CCC(C1)C(C)(C)C2NC(=O)c1nc(-c2ccccc2)n2c1CN(C(=O)C1CCOC1)CC2 (stereo not shown) [Compound 121, 3-phenyl-7-(tetrahydrofuran-3-carbonyl)-N-(1,3,3-trimethylbicyclo[2.2.1]heptan-2-yl)-5,6,7,8-tetrahydroimidazo[1,5-a]pyrazine-1-carboxamide]",,> 10000 nM,−,,
"COC(=O)c1cccc(CNC(=O)c2nc(-c3ccc(Cl)cc3F)n3c2CN(C)CC3)c1 [Compound 224, methyl 3-((3-(4-chloro-2-fluorophenyl)-7-methyl-5,6,7,8-tetrahydroimidazo[1,5-a]pyrazine-1-carboxamido)methyl)benzoate]",,,−,> 10000 nM,
"COC(=O)N1CCn2c(-c3ccc(Cl)cc3)nc(C(=O)NCCC(C)C)c2C1 [Compound 183, methyl 3-(4-chlorophenyl)-1-(isopentylcarbamoyl)-5,6-dihydroimidazo[1,5-a]pyrazine-7(8H)-carboxylate]",,> 10000 nM,−,,
"CCC/C=C/c1nc(C(=O)N[C@H](C(=O)NC)C(C)(C)C)c2n1CCN(C)C2 [Compound 268, (S,E)-N-(3,3-dimethyl-1-(methylamino)-1-oxobutan-2-yl)-7-methyl-3-(pent-1-enyl)-5,6,7,8-tetrahydroimidazo[1,5-a]pyrazine-1-carboxamide]",> 10 µM,,,,+
"CC(C)(C)CNC(=O)c1nc(-c2ccccc2)n2c1CN(S(=O)(=O)c1ccc(F)cc1)CC2 [Compound 103, 7-(4-fluorophenylsulfonyl)-N-neopentyl-3-phenyl-5,6,7,8-tetrahydroimidazo[1,5-a]pyrazine-1-carboxamide]",,> 10000 nM,−,,
"CC(C)(C)[C@@H](CO)NC(=O)c1nc(-c2ccc(Cl)cc2)n2c1CNCC2 [Compound 43, (S)-3-(4-chlorophenyl)-N-(1-hydroxy-3,3-dimethylbutan-2-yl)-5,6,7,8-tetrahydroimidazo[1,5-a]pyrazine-1-carboxamide]",,> 10000 nM,−,,
"Cc1noc([C@@H](NC(=O)c2nc(-c3ccccc3)n3c2CN(C)CC3)C(C)(C)C)n1 [Compound 87, (S)-N-(2,2-dimethyl-1-(3-methyl-1,2,4-oxadiazol-5-yl)propyl)-7-methyl-3-phenyl-5,6,7,8-tetrahydroimidazo[1,5-a]pyrazine-1-carboxamide]",,> 10000 nM,−,,
"CNC(=O)[C@@H](NC(=O)c1nc(-c2ccccc2)n2c1CN(CC1CC1)CC2)C(C)(C)C [Compound 56, (S)-7-(cyclopropylmethyl)-N-(3,3-dimethyl-1-(methylamino)-1-oxobutan-2-yl)-3-phenyl-5,6,7,8-tetrahydroimidazo[1,5-a]pyrazine-1-carboxamide]",,> 10000 nM,−,,
"CNC(=O)C(NC(=O)c1nc(-c2ccccc2)n2c1CN(C)CCC2)C(C)(C)F (stereo not shown) [Compound 605, N-(3-fluoro-3-methyl-1-(methylamino)-1-oxobutan-2-yl)-8-methyl-3-phenyl-6,7,8,9-tetrahydro-5H-imidazo[1,5-a][1,4]diazepine-1-carboxamide]",,> 10000 nM,+,,
"CC(C)C[C@H](NC(=O)c1nc(-c2ccc(F)cc2)n2c1CN(C)CCC2)C(N)=O [Compound 565, (S)-N-(1-amino-4-methyl-1-oxopentan-2-yl)-3-(4-fluorophenyl)-8-methyl-6,7,8,9-tetrahydro-5H-imidazo[1,5-a][1,4]diazepine-1-carboxamide]",,> 10000 nM,+,,

# Source: US7517874B2 (priority 2007, dated 2009)
